Tested on: patient with sequelae of coronavirus pneumonia (omicron variant of coronavirus)
Settings: human, in vivo

## [HH] [hydrogen gas, hydrogen]
  Daily headache and migraine that occurred several times a day: relieved
  Generalized pain, difficulty breathing, feeling of faintness, malaise, fatigue after exertion, sleeping disorder, low-grade fever, bradycardia, blood pressure drop: continues to alleviate symptoms
  State of pulmonary fibrosis: improving
  Time after which sleeping disorder improved: about 3 days

Reference: US20230256007A1 (priority 2022, published 2023)
